Molecules are shown by their SMILES.

By Ki is commonly meant the equilibrium dissociation constant of an inhibitor or competing ligand from its target. Read a high Ki as a looser hold on the target.

The target of test [1] is T1, TYK2 (Homo sapiens, UniProt P29597).
T1 construct: catalytic domain (amino acids 871-1187; catalog number 08-147); GST; purchased Carna Biosciences 08-147
T1 sequence (P29597 871-1187): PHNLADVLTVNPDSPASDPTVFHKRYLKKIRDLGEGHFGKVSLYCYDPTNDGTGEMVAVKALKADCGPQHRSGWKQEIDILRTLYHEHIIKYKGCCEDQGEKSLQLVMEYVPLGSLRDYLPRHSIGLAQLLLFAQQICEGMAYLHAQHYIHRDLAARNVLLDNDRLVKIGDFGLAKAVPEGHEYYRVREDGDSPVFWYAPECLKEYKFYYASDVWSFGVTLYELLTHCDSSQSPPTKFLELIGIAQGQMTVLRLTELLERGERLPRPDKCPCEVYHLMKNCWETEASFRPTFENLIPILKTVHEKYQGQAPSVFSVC
The experiment in a line: TYK2 Ki determination assay. The conditions noted are these: Lineweaver-Burk plot, polyGT substrate, varying ATP. Format: biochemical. The procedure: For the determination of Ki, different amounts of compound are mixed with the enzyme and the enzymatic reaction is followed as a function of ATP concentration. The Ki is determined by means of double reciprocal plotting of Km vs compound concentration (Lineweaver-Burk plot). TYK2 (Carna Biosciences, 08-147) was used at a final concentration of 160 ng/ml. The substrate was Poly(Glu,Tyr)sodium salt (4:1), MW 20 000-50 000 (Sigma, P0275) The reaction was performed in 25 mM Hepes pH 7.2, 50 mM NaCl, 0.5 mM EDTA, 1 mM DTT, 5 mM MnCl2, 10 mM MgCl2, 0.1% Brij-35 with varying concentrations of ATP and compound and stopped by addition of 150 mM phosphoric acid. Measurement of incorporated phosphate into the substrate polyGT was done by loading the samples on a filter plate (using a harvester, Perkin Elmer) and subsequent washing. Incorporated ^33P in polyGT is measured in a Topcount scintillation counter after addition of scintillation liquid to the filter plates (Perkin Elmer).

For test [2], the system named is rat CIA model. The experiment in a line: Rat collagen induced arthritis (CIA) model. Format: in vivo. The conditions noted are these: dose of 0.1 mg/kg. Here is the method: Completed Freund's adjuvant (CFA) and incomplete Freund's adjuvant (IFA) were purchased from Difco. Bovine collagen type II (CII), lipopolysaccharide (LPS), and Enbrel was obtained from Chondrex (Isle d'Abeau, France); Sigma (P4252, L′Isle d'Abeau, France), Whyett (25 mg injectable syringe, France) Acros Organics (Palo Alto, Calif.), respectively. All other reagents used were of reagent grade and all solvents were of analytical grade.
Dark Agouti rats (male, 7-8 weeks old) were obtained from Harlan Laboratories (Maison-Alfort, France). Rats were kept on a 12 hr light/dark cycle (0700-1900). Temperature was maintained at 22° C., and food and water were provided ad libitum.
One day before the experiment, CII solution (2 mg/mL) is prepared with 0.05 M acetic acid and stored at 4° C. Just before the immunization, equal volumes of adjuvant (IFA) and CII are mixed by a homogenizer in a pre-cooled glass bottle in an ice water bath. […]
Arthritis is scored according to the method of Khachigian 2006, Lin et al 2007 and Nishida et al. 2004). […]
The area under the curve (AUC) from day 1 to day 14 is calculated for each individual rat. The AUC of each animal is divided by the average AUC obtained for the vehicle in the study from which the data on that animal is obtained and multiplied by 100 (i.e. the AUC was expressed as a percentage of the average vehicle AUC per study). […]

Test [3] has as its target T2, JAK3 (Homo sapiens, UniProt P52333).
T2 construct: catalytic domain (amino acids 795-1124; catalog number 08-046); purchased Carna Biosciences 08-046
The experiment in a line: JAK3 Ki determination assay. The conditions noted are these: Lineweaver-Burk plot, polyGT substrate, varying ATP. The class given is biochemical. Here is the method:
For the determination of Ki, different amounts of compound are mixed with the enzyme and the enzymatic reaction is followed as a function of ATP concentration. The Ki is determined by means of double reciprocal plotting of Km vs compound concentration (Lineweaver-Burk plot). JAK3 (Carna Biosciences, 08-046) was used at a final concentration of 20 ng/ml. The substrate was Poly(Glu,Tyr)sodium salt (4:1), MW 20 000-50 000 (Sigma, P0275) The reaction was performed in 25 mM Tris pH 7.5, 0.01% Triton X-100, 0.5 mM EGTA, 2.5 mM DTT, 0.5 mM Na3VO4, 5 mM b-glycerolphosphate, 10 mM MgCl2 with varying concentrations of ATP and compound and stopped by addition of 150 mM phosphoric acid. Measurement of incorporated phosphate into the substrate polyGT was done by loading the samples on a filter plate (using a harvester, Perkin Elmer) and subsequent washing. Incorporated ^33P in polyGT is measured in a Topcount scintillation counter after addition of scintillation liquid to the filter plates (Perkin Elmer).

T2 sequence (P52333 795-1124): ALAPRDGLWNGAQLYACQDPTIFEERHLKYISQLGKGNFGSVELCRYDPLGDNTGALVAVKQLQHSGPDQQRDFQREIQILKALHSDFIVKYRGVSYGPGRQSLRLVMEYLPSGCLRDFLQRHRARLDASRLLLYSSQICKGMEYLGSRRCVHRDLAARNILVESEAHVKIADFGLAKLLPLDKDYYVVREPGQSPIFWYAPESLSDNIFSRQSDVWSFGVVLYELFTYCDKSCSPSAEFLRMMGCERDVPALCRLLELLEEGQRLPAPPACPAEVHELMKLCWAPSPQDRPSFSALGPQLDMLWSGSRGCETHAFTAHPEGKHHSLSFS

Turning to `CC(=O)Nc1cc2c(-c3ccc(CN4CCN(S(C)(=O)=O)CC4)c(F)c3)cccn2n1` [Compound 21], the Ki in test [1] worked out at 135 nM; in test [3], 227 nM. Moreover, the “normalized clinical score values (calculated as AUC or as the difference from day 1 to day 14)” value in test [2] is “statistically significant improvements”.

(Values after patent US8975406B2, “Compound useful for the treatment of degenerative and inflammatory diseases” (Galapagos N.V., priority 2011, dated 2015).)
